Measurements as given in PMC5363072 (Bioorganic & medicinal chemistry letters, 2016).

Key:
[1] = biological target: T1, Rat ASCT2 (Rattus norvegicus, UniProt D3ZJ25); assay type: cell-based
T1 sequence (D3ZJ25 1-555): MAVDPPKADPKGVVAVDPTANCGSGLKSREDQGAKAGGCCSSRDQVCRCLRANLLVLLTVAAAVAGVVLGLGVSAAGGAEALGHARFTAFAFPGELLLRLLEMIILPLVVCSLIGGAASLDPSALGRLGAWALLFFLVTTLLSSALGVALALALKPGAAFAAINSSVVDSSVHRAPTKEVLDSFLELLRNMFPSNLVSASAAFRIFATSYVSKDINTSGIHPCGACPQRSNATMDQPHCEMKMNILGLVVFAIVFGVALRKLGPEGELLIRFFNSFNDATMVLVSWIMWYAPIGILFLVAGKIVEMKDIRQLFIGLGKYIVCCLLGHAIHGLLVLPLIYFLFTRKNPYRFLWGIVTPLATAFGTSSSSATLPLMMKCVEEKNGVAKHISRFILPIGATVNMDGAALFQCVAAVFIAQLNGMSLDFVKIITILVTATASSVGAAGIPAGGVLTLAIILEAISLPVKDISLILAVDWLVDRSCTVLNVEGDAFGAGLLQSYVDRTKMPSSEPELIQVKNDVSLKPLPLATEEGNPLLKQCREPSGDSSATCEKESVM

[2] = test system: ASCT2; conditions: commercially available ASCT2 inhibitor; cited from earlier work

O=C(O)[C@@H]1C[C@@H](Cc2ccccc2F)CN1 [(R)-γ-(2-fluoro-benzyl)-L-proline]
Ki [1]: 83 ± 20 µM

O=C(O)[C@@H]1C[C@@H](Cc2ccc(-c3ccccc3)cc2)CN1 [(R)-γ-(4-biphenylmethyl)-L-proline]
higher affinity compared to any other ASCT2 inhibitor tested so far ([1]; compared to authors' earlier ASCT2 inhibitors [11],[15]): about 8 fold

N[C@@H](CCC(=O)Nc1ccc([N+](=O)[O-])cc1)C(=O)O [L-γ-glutamyl-nitroanilide]
affinity for ASCT2 [2]: mM affinity

O=C(O)[C@@H]1CCCN1 [proline]
activity in ASCT2 ([1]; concentration up to 1 mM): does not induce any activity
